# Measurements from article PMC9388697 (Biometals : an international journal on the role of metal …, 2022).
# Molecular target: Mar2 (Thermoanaerobacterium thermosaccharolyticum, UniProt D9TSN9, K173F/K351T)
# Test: lactate racemase activity, L-lactate determined with Megazyme kit
# Assay type: biochemical
# Details: 200 mM D-lactate; in vitro synthesized NPN; 35 °C; 30 min
smiles,measurement,value
C[C@@H](O)C(=O)O [D-lactate],% of TtLarA activity,a small but substantial lactate racemase (Lar) activity was detected for the purified enzymes
